Peptide text beside a SMILES is read from it. * marks the point of attachment. Palmitoyl = CCCCCCCCCCCCCCCC(=O)*
Columns and labels:
[1] = Pharmacokinetics of PAR1 pepducins in CF-1 mice, plasma LC/MS/MS; assay type: in vivo, mouse; set-up: Peak plasma level: unit not given here; settings: 10 mg/kg s.c.
Protocol: FIG. 14 illustrates pharmacokinetics of PAR1 pepducins. (A): CF-1 mice were injected subcutaneously with P1pal-7 (3 mg/kg, open circles), P1pal-7 (10 mg/kg, closed circles), P1pal-10S (10 mg/kg, gray circles), or P1pal-i1-11 (10 mg/kg, open squares) in 20% dimethyl sulfoxide and blood was collected at indicated time points (n=3). Pepducin levels in plasma were quantified with LC/MS/MS. (B): Daily (D1 to D6) plasma levels of P1pal-7 after subcutaneous injection of 10 mg/kg P1pal-7 were measured at 1 hour (open circles) and 24 hours (open squares).
Pharmacokinetics of plasma levels of P1pal-7, P1pal-10S, and P1pal-i1-11 at 30 minutes, and at 1, 2, 4, 6, 8, and 16 hours was measured by LC/MS/MS to determine steady-state pepducin drug levels and the rate of elimination from mice. Subcutaneous injections of P1pal-7 (3 mg/kg or 10 mg/kg) into wild-type CF-1 mice (25 to 30 g) was followed by blood collection at various time points from the vena cava. […] Residual P1pal-7 levels were 10 nmol/L at the 16-hour time point. After the 4-hour plateau, the elimination rate was linear from 4 to 16 hours. The peak plasma level of 3 mg/kg P1pal-7 reached 0.6 μmol/L at 2 hours and elimination was linear between 2 hours and 16 hours. P1pal-10S (10 mg/kg) gave similar peak plasma level of 1.0 μmol/L as P1pal-7 (10 mg/kg) at 1 hour.
Lastly, the peak plasma level of P1pal-7 (10 mg/kg) was measured before and 1 hour after once-daily subcutaneous injection over 6 days to determine whether the peak plasma levels were consistent on daily administration.

[2] = test system: A549, HOP62, and HOP92 lung carcinoma cell lines; test: Cytotoxicity/cell viability of lung carcinoma cells (MIT assay); assay type: cell-based, human; settings: 3-day period
PAR1 = target: T1, PAR1 (Homo sapiens, UniProt P25116); test: [3H]-InsP formation in COS7 cells transfected with PAR1; assay type: cell-based; set-up: expressed in transfected cells; host or cells: COS7; settings: 1 μM TFLLRN, 30 min
T1 sequence (P25116 22-425): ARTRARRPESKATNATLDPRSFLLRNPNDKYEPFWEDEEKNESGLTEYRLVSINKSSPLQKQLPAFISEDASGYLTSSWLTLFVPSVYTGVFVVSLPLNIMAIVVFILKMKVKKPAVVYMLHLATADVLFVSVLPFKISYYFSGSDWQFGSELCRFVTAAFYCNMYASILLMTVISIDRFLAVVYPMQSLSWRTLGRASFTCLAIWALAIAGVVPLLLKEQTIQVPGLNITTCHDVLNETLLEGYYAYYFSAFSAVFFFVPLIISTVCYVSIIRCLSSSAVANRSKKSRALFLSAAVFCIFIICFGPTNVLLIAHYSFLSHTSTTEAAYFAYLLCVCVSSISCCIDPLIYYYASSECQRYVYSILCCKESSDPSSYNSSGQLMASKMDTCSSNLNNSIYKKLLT
Protocol: (A) PAR2 antagonist pepducins P2pal-18S and P2pal-14GQ inhibit calcium flux induced by PAR2 (SLIGRL) (SEQ ID NO:4) but not PAR1 (TFLLRN) (SEQ ID NO:2) agonists. SW620 cells were stably transfected with PAR1 and pretreated for 1 min with various concentrations of P2pal-18S or P2pal-14GQ and then stimulated with 30 μM PAR agonist. […] Cells were stimulated with 1 μM TFLLRN (SEQ ID NO:2), 1 μM SLIGRL (SEQ ID NO:4) or 100 μM AYPGKF (SEQ ID NO:5) and [^3H]-InsP formation measured over 30 min. (C) SW620 cells were treated with the indicated concentrations of P2pal-18S or P2pal-14GQ in the upper well of an 8-μm pore Boyden chamber and allowed to migrate for 18 h towards 10 μM of the PAR2 specific agonist SLIGRL in the lower chamber. The migration to RPMI/0.1% FBS represents random migration. (D) Migration of HEK cells transiently transfected with PAR2 (wild-type, WT), or PAR2-R36A/PAR2-RQ toward chemotactic gradients of 30 nM trypsin in the absence or presence of the indicated concentration of P2pal-18S for 18 h in a transwell apparatus ([…]). Data (n=2-4) are mean±SEM. *, P<0.05 and **, P<0.005.

PAR2 = PAR2 (Mus musculus, UniProt P55086); test: Mouse neutrophil chemotaxis to trypsin; assay type: cell-based; settings: 30 nM trypsin
Chain of PAR2 (P55086 26-399): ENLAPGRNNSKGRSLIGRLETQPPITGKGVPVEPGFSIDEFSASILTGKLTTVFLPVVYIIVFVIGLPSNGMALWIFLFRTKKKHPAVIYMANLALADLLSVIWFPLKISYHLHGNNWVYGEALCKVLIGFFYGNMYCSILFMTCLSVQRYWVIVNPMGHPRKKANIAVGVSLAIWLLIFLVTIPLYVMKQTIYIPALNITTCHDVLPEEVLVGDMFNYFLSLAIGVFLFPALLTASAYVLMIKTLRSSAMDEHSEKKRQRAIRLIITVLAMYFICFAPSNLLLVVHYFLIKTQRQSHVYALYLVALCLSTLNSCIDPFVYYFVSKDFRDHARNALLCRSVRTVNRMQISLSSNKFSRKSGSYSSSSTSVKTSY
Protocol: (A) Human neutrophils (n=4 normal volunteers) were analyzed for surface expression of human PAR1, PAR2, and PAR4 by flow cytometry with PAR-specific antibodies. […] Chemotaxis index is the ratio of directed versus random migration over 30 min through a 5-μm pore filter.
The ability of some pepducin embodiments of the invention to antagonize PAR2-dependent activity of human neutrophils was tested. Neutrophils were isolated from the peripheral blood of healthy human volunteers and found to express high levels of surface PAR2 and PAR4 and lower apparent levels of PAR1 by flow cytometry (FIG. 3A). […] As human PAR2 shares 85% identity with mouse PAR2 and the mouse i3 loop retains all of the critical pharmacophores identified in the human PAR2 i3 loop, cross-species inhibition with mouse cells was tested.

| SMILES | Clearance / plasma half-life in words [1] | Peak plasma level ([1]; between 0.5 and 8 hours) | Sensitivity of A549 cells (cytotoxicity) [2] | Inhibition of InsP signaling from PAR1 (PAR1) | Inhibition of mouse neutrophil migration (PAR2) |
| --- | --- | --- | --- | --- | --- |
| CCCCCCCCCCCCCCCC(=O)N[C@H](C(=O)N[C@@H](CC(C)C)C(=O)N[C@@H](CCCCN)C(=O)N[C@@H](CCSC)C(=O)N[C@@H](CCCCN)C(=O)N[C@H](C(=O)N[C@@H](CCCCN)C(=O)N[C@@H](CCCCN)C(=O)N1CCC[C@H]1C(=O)N[C@@H](C)C(=O)N[C@H](C(N)=O)C(C)C)C(C)C)[C@@H](C)CC [P1pal-i1-11] (Palmitoyl-ILKMKVKKPAV-NH2) | sustained plasma half-life | 5.0 | less sensitive | – | – |
| CCCCCCCCCCCCCCCC(=O)N[C@@H](CCCNC(=N)N)C(=O)N[C@@H](CO)C(=O)N[C@@H](CO)C(=O)N[C@@H](C)C(=O)N[C@@H](CCSC)C(=O)N[C@@H](CC(=O)O)C(=O)N[C@@H](CCC(=O)O)C(=O)N[C@@H](CC(N)=O)C(=O)N[C@@H](CO)C(=O)N[C@@H](CCC(=O)O)C(=O)N[C@@H](CCCCN)C(=O)N[C@@H](CCCCN)C(=O)N[C@@H](CCCNC(=N)N)C(=O)N[C@@H](CCCCN)C(=O)N[C@@H](CO)C(=O)N[C@@H](C)C(=O)N[C@H](C(=O)N[C@@H](CCCCN)C(N)=O)[C@@H](C)CC [P2pal-18S] | – | – | – | do not inhibit | completely inhibited |

Reference: patent US10913781B2, “Pepducin design and use” (Tufts Medical Center, Inc., priority 2011, dated 2021)
